In US20230125249A1 (FIRMENICH SA, priority 2017, published 2023):
Read-outs that look alike come from different tables or passages of the source.

Columns and labels:
[1] = molecular target: T1, OR5AN1 olfactory receptor (Homo sapiens, UniProt Q8NGI8); assay: MUSCENONE®/musk dose-response on OR5AN1 in presence and absence of putative modulator (EC50 shift, span); type: cell-based; settings: MUSCENONE® dose response in the presence of 250 μM compound
T1 construct: expressed in transfected cells
T1 sequence (Q8NGI8 1-311): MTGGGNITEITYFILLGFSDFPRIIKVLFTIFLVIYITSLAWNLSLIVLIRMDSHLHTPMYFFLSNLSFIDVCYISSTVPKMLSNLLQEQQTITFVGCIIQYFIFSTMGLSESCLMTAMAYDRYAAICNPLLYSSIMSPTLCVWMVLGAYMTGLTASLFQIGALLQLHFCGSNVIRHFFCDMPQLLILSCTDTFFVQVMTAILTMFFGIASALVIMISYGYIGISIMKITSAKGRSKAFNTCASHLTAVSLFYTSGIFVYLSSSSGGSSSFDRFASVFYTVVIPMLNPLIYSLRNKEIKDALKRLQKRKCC
Description: Next, two parallel dose-response experiments to confirm the true enhancement properties of the potential candidates were performed. First, a dose-response of each individual candidate was performed to determine if it was an agonist by itself.
The resulting enhancement was quantified by means of EC50-fold shift (potency increase) and the efficacy span ratio (efficacy increase).
The EC50-fold shift was obtained by dividing the EC50 of MUSCENONE® +compound by the reference EC50 MUSCENONE® alone. The span ratio was obtained by dividing the span of MUSCENONE®+compound by the reference span of MUSCENONE® alone.

[2] = molecular target: T1, OR5AN1 olfactory receptor; assay: Response of the OR5AN1 olfactory receptor to musk compounds (HTRF); type: cell-based
[3] = molecular target: T1, OR5AN1 olfactory receptor; assay: Single point binary mixture screen (MUSCENONE® + test compound) on a cell line expressing OR5AN1; type: cell-based; settings: MUSCENONE® 10 μM + test compound 500 μM, compared to MUSCENONE® alone
Description: 481 binary mixtures were created by mixing a MUSCENONE® stock solution with a stock solution of each test compound to a final concentration 10 and 500 μM, respectively. Stock solutions were made of compounds dissolved in pure DMSO. Each mixture was presented to a cell line expressing the OR5AN1 olfactory receptor. The final concentration of DMSO in each binary mixture was 0.17%, and had no visible effect on the cells
The resulting activation was then measured and compared to MUSCENONE® alone (defining the baseline of the enhancement assay). The quality of the HTS process was determined and the window variability and signal reliability were assessed by calculating the Z′ value of each plate. Twenty hits were obtained, five of which were macrocyclic ketone and nitromusk OR5AN1 olfactory receptor agonists (hit n° 1, 2, 3, 5 and 9). These OR5AN1 olfactory receptor agonists further confirmed that the dynamic range of the assay window was sufficient (as the responses recorded were well above baseline) and thus likely sensitive enough to detect even low levels of putative enhancement.

[4] = molecular target: T1, OR5AN1 olfactory receptor; assay: MUSCENONE®/musk dose-response on OR5AN1 in presence and absence of putative modulator (EC50 shift, span); type: cell-based; settings: FIG. 6; MUSCENONE® dose response in the presence of 250 μM compound
[5] = test system: OR5AN1 allele 3; assay: Cell based assay of hypofunctional OR5AN1 allele 3 with and without enhancer; parameters: species or system human
[6] = Odor detection threshold (ODT) forced-choice triangle test with background odor; type: in vivo, human
Description: Sensitivity of human individuals to MUSCENONE® was evaluated by performing an odor detection threshold (ODT) test. The ODT test consisted of identifying the concentration for which 50% of the panelists are able to determine which of three containers contains the target compound Muscenone® in a forced-choice triangle tests. Two tests were performed to calculate the ODT in mixtures containing Muscenone® plus a perceivable background odor of chemically similar molecules a) the enhancer tridecylenic aldehyde and b) the non-enhancing volatile compound, nonanal.
27 panelists were given a series of triangle tests with increasing concentration of MUSCENONE® in the presence of nonanal at a concentration of 0.1%. Within each triangle test, the three samples contained nonanal at 0.1% and one sample also contained MUSCENONE®. In each triangle test, the panelists were asked to identify the one sample that was different from the other two samples. The ODT was calculated by fitting a non-linear regression model onto the data and calculating the MUSCENONE® concentration at which the proportion of correct responses was equal to ⅔ (the midpoint between chance rate ⅓ and all correct answers 1). […]

[7] = test system: OR5AN1 allele 4; assay: Cell based assay of hypofunctional OR5AN1 allele 4 with and without enhancer; parameters: species or system human
[8] = molecular target: T1, OR5AN1 olfactory receptor; assay: Allosteric EC50 shift analysis: MUSCENONE® dose response with serial concentrations of enhancer; type: cell-based; settings: same method as for TDA
Description: The level of enhancement of the OR5AN1 olfactory receptor activation was evaluated at distinct concentrations of the enhancer. […] The curves were obtained by applying the simplified Allosteric EC50 shift effect equation (available in Prism5, v. 5.02) derived from the ternary complex interaction model.

## CCCCCCCCC=O [nonanal, reference compound]
[1]
  OR5AN1 Musk response enhancement: non-enhancing

## Cc1c([N+](=O)[O-])c(C)c([N+](=O)[O-])c(C(C)(C)C)c1[N+](=O)[O-] [Musk xylol]
[2]
  Activation of the OR5AN1 olfactory receptor: specifically activated
  Span (HTRF ratio): 4217 HTRF ratio

## CCC/C=C/C=O [Compound 12]
[3]
  Hit Type: Enhancement

## CCCCCCCC=O [octanal]
[4]
  Inhibition of the activity of the OR5AN1 olfactory receptor: inhibit the activity

## COC(=O)c1ccccc1OC [Compound 16]
[3]
  Hit Type: Enhancement

## Trans-2,6,7-dimethyl-2,6-octadienal [Compound 9]
[3]
  Hit Type: agonists

## (2E)-7-methyl-2,6-octadienal [Compound 3]
[3]
  Hit Type: agonists

## CC1=CCCC2(CCCCC2)C1/C=C/C=O (racemic) [(+−)-(2E)-3-(2-methylspiro [5.5]undec-2-en-1-yl) acrylaldehyde]
[4]
  Inhibition of the activity of the OR5AN1 olfactory receptor: inhibit the activity

## CCCCCCCCCCC/C=C/C=O [Compound 7, (E)-2-tetradecenal]
[3]
  Hit Type: Agonist

## CC/C=C\CCCCCO [(Z)-6-nonen-1-ol]
[4]
  Inhibition of the activity of the OR5AN1 olfactory receptor: inhibit the activity

## CC1CC=CCCCCCCCCCC(=O)C1 (stereo not drawn) [MUSCENONE®]
[5]; allele 3, absence of enhancer
  Activity (span): 2311 relative fluorescent HTRF units
  EC50: 9 µM
[5]; allele 3, in the presence of 250 μM tridecylenic aldehyde
  EC50: 1.5 µM
[5]; allele 3, in the presence of tridecylenic aldehyde
  Activity (span): 4663 relative fluorescent HTRF units
[6]; in the presence of nonanal at 0.1%, 27 panelists
  ODT (odor detection threshold): 0.93%
[6]; in the presence of tridecylenic aldehyde at 0.1%, 28 panelists
  ODT (odor detection threshold): 0.09%
[7]; allele 4, absence of enhancer
  Activity (span): 2328 relative fluorescent HTRF units
  EC50: 10.1 µM
[7]; allele 4, in the presence of 250 μM tridecylenic aldehyde
  EC50: 1.6 µM
[7]; allele 4, in the presence of tridecylenic aldehyde
  Activity (span): 5026 relative fluorescent HTRF units
[2]; FIG. 1a
  Activation of the OR5AN1 olfactory receptor: specifically activated
[2]; efficacy, maximum span
  Span (HTRF ratio): 3629 HTRF ratio

## O=CCCc1ccccc1 [3-phenylpropanal]
[4]
  Inhibition of the activity of the OR5AN1 olfactory receptor: inhibit the activity

## CC12C3CC(CC31)[C@]2(C)C/C=C/C=O (single isomer, unassigned; (+))
[4]
  Inhibition of the activity of the OR5AN1 olfactory receptor: inhibit the activity

## CCCCCCCCC/C=C/C(=O)O [(E)-2-dodecenoic acid]
[4]
  Inhibition of the activity of the OR5AN1 olfactory receptor: inhibit the activity

## CCCCCCCC/C=C/C(=O)O [(E)-2-undecenoic acid]
[4]
  Inhibition of the activity of the OR5AN1 olfactory receptor: inhibit the activity

## COc1ccccc1/C=C/C=O [(E)-3-(2-methoxyphenyl)prop-2-enal]
[4]
  Inhibition of the activity of the OR5AN1 olfactory receptor: inhibit the activity

## CCCCCCCC=CC=O [Compound 2-decenal, 2-decenal]
[8]
  Allosteric modulation properties: allosteric modulation properties similar to TDA

## CC(C)=CCCC(C)C/C=C/C=O (racemic) [Compound 5, (+−)-(2E)-5,9-dimethyl-2,8-decadienal]
[3]
  Hit Type: Agonist

## CCCCCOC(=O)CCCC [pentyl valerate]
[4]
  Inhibition of the activity of the OR5AN1 olfactory receptor: inhibit the activity

## CC/C=C\CC/C=C/CO [(E)-2-(Z)-6-nonadien-1-ol]
[4]
  Inhibition of the activity of the OR5AN1 olfactory receptor: inhibit the activity

## C=CCCCCCCCCC(=O)O [undecenoic acid]
[1]
  OR5AN1 Musk response enhancement: absence of enhancement

## CCCCCCCCCC/C=C/CO [(E)-2-tridecenol]
[4]
  Inhibition of the activity of the OR5AN1 olfactory receptor: inhibit the activity

## CC(=O)c1c(C)c([N+](=O)[O-])c(C(C)(C)C)c([N+](=O)[O-])c1C [Musk ketone]
[2]; FIG. 1a
  Activation of the OR5AN1 olfactory receptor: specifically activated
[2]; efficacy, maximum span
  Span (HTRF ratio): 4312 HTRF ratio

## CC(C)c1cccc(C(C)CC=O)c1 (stereo not drawn) [3-(3-propan-2-ylphenyl)butanal]
[4]
  Inhibition of the activity of the OR5AN1 olfactory receptor: inhibit the activity

## SCc1ccco1 [furfuryl mercaptan]
[4]
  Inhibition of the activity of the OR5AN1 olfactory receptor: inhibit the activity

## CCC/C=C/C=O [(E)-2-hexenal]
[4]
  Inhibition of the activity of the OR5AN1 olfactory receptor: inhibit the activity

## CCCCCCCCCC/C=C/C(=O)O [(E)-2-tridecenoic acid]
[4]
  Inhibition of the activity of the OR5AN1 olfactory receptor: inhibit the activity

## CCCCCC/C=C/C=O [Compound 6]
[3]
  Hit Type: Enhancement

## C[C@@H]1CCCCCCCCCCCCC(=O)C1 [Muscone]
[2]; FIG. 1a
  Activation of the OR5AN1 olfactory receptor: specifically activated
[2]; efficacy, maximum span
  Span (HTRF ratio): 2979 HTRF ratio

## CC1C2CC(CC2C2CCCC(O)C2)C1(C)C (stereo not drawn) [sandenol]
[4]
  Inhibition of the activity of the OR5AN1 olfactory receptor: inhibit the activity

## C/C(C=O)=C\CCc1ccc(C(C)(C)C)cc1 [trans-5-(4-tert-butylphenyl)-2-methylpent-2-enal]
[4]
  Inhibition of the activity of the OR5AN1 olfactory receptor: inhibit the activity

## CCCCCC/C=C/C=O [nonylenic aldehyde]
[8]
  Allosteric modulation properties: allosteric modulation properties similar to TDA

## CCCCC/C=C/CCC=O [(E)-dec-4-enal]
[4]
  Inhibition of the activity of the OR5AN1 olfactory receptor: inhibit the activity

## CC/C(=C\CC1CC=C(C)C1(C)C)CO (stereo not drawn) [bacdanol]
[4]
  Inhibition of the activity of the OR5AN1 olfactory receptor: inhibit the activity

## CC(=O)c1ccccc1N [Compound 20]
[3]
  Hit Type: Enhancement

## CCCCCCC/C=C/C=O [Compound 11]
[3]
  Hit Type: Enhancement

## (2E)-7,8-dimethyl-2,7-nonadienal [Compound 1]
[3]
  Hit Type: Agonist
